The text below walks through data of the Deep4Chem optical property database.

The nature of this series: solvent given as SMILES.

The compound `CCCC1=Cc2nc1ccc1[nH]c(cc1CCC)c1nc(c(OC(=O)CCCNC(=O)OC(C)(C)C)cc3[nH]c2cc3CCC)C(CCC)=C1` showed an absorption maximum (in Cc1ccccc1) of 645 nm.
For `O=c1[nH]c2ccccc2[nH]1`, the absorption maximum (in C1CCOC1) amounted to 291 nm; the absorption maximum (in CC#N) is 281 nm; the absorption maximum (in CC(C)=O) is 285 nm; the absorption maximum (in CCCCCCC) came out at 292 nm; the absorption maximum (in CCCCCl) worked out at 287 nm; the absorption maximum (in CCCCO) amounted to 280 nm. For the same compound, the absorption maximum was 280 nm (in CCCO), 280 nm (in CCCOCCC) and 280 nm (in CCO).
Consider `c1ccc2cc3cc(-c4cc(-c5nccs5)nc(-c5nccs5)c4)ccc3cc2c1`, for which the absorption maximum (in CC#N) is listed as 305 nm, the absorption maximum (in CCCCCC) is 375 nm, the absorption maximum (in CO) was found to be 356 nm and the absorption maximum (in ClC(Cl)Cl) came out at 394 nm.
Consider `CCCCc1ccc2ccc3c(CCCC)ccc4ccc1c2c43`, for which the absorption maximum (in CCCCCC) is given as 344 nm, the absorption maximum (in CO) came out at 344 nm and the absorption maximum (in ClCCl) amounted to 347 nm.
For `N#Cc1ccc(N)c2nonc12`, the absorption maximum is recorded as 418 nm (in C1COCCO1); 421 nm (in CC#N); 397 nm (in CCCCCC); 430 nm (in CCO); 409 nm (in Cc1ccccc1); 407 nm (in ClCCl). This compound showed an absorption maximum (in O) of 430 nm.
In the case of `CCCCn1c2ccccc2c2ccc3c4cc(-c5cccc(F)c5)ccc4n(CCCC)c3c21`, the absorption maximum (in ClC(Cl)Cl) worked out at 328 nm.
In turn, `CC(C)[Si](C#Cc1cc2c3c(c1)c(=C(c1ccccc1)c1ccccc1)c1cc(C#C[Si](C(C)C)(C(C)C)C(C)C)cc4c1N3c1c(cc(C#C[Si](C(C)C)(C(C)C)C(C)C)cc1c4=C(c1ccccc1)c1ccccc1)c2=C(c1ccccc1)c1ccccc1)(C(C)C)C(C)C` came in with an absorption maximum (in ClCCl) of 404 nm.
Take `COc1cc(N(c2ccccc2)c2ccccc2)ccc1C=C(C#N)C#N`: the absorption maximum is 436 nm (in C1COCCO1); 440 nm (in CC#N); 440 nm (in CC(C)=O); 439 nm (in CCOC(C)=O); 445 nm (in CN(C)C=O); 442 nm (in CO). The absorption maximum runs as follows: (in Cc1ccccc1) 443 nm; (in ClC(Cl)Cl) 449 nm; (in ClCCl) 446 nm.
With `N#C[Se]CCCCCOc1ccc2ccc(=O)oc2c1`, the absorption maximum by setting is: (in C1CCCCC1) 321 nm; (in C1CCOC1) 322 nm; (in C1COCCO1) 319 nm; (in CC#N) 321 nm; (in CCCCCCC) 319 nm; (in CCO) 323 nm. Further, the absorption maximum is listed as 322 nm (in CN(C)C=O), 322 nm (in CO), 324 nm (in O) and 326 nm (in OCCO).
In the case of `CCn1c2ccccc2sc2c(C#N)c3[nH]c4ccccc4sc3c(C#N)c21`, the absorption maximum (in ClC(Cl)Cl) came out at 495 nm.
Consider `CC(C)(C)c1cc(-c2c3cccc4c5cccc6c(-c7cc(C(C)(C)C)cc(C(C)(C)C)c7)c7cccc8c9cccc2c9c(c34)c(c65)c78)cc(C(C)(C)C)c1`, for which the absorption maximum (in Cc1ccccc1) was 687 nm.
For `CC1(C)Nc2cc3nc4cc(Cl)c(Cl)cc4nc3cc2N1`, the absorption maximum (in CCO) was 471 nm.
In turn, `CCCCCCn1c2cc(C=C(C#N)C#N)sc2c2sc3c(sc4c5sc(C=C(C#N)C#N)cc5n(CCCCCC)c43)c21` registered an absorption maximum (in ClCCl) of 588 nm.
Regarding `Cc1cc(C)c(B2c3cc(C(C)(C)C)ccc3-c3c(-c4ccccc4)ccc4cc(C(C)(C)C)cc2c34)c(C)c1`, the absorption maximum (in C1CCCCC1) turned out to be 406 nm.
`CCCN1/C(=C/C=C/C=C/C2=[N+](CCC)c3ccccc3C2(C)C)C(C)(C)c2ccccc21`: the absorption maximum was 637 nm (in CO), 645 nm (in CS(C)=O) and 633 nm (in O).
`CCN1CCN(c2ccc(/N=N/c3cc(C(F)(F)F)cc(C(F)(F)F)c3)cc2)CC1` yielded an absorption maximum (in CCOC(C)=O) of 427 nm.
Consider `F[B-]1(F)OC(c2cccc(Br)c2)=Cc2ccc3ccccc3[n+]21`, for which the absorption maximum (in ClC(Cl)Cl) is listed as 426 nm.
As to `c1ccn(-c2ccc(-c3cc(-c4ccc(-n5cccc5)cc4)cc(-c4ccc(-n5cccc5)cc4)c3)cc2)c1`, the absorption maximum (in ClCCl) was determined as 388.72 nm.
For the setting “in CN(C)C=O”, `Cc1nc2cccc(-c3nc4ccc(Cl)cc4o3)c2c(=O)[nH]1` registered an absorption maximum of 310 nm.
For the compound `CCCCCCc1cc2c(s1)-c1cc3c(cc1NB2c1ccccc1)-c1sc(CCCCCC)cc1B(c1ccccc1)N3`, where the note is “in ClCCl”, the absorption maximum came out at 412 nm.
As to `O=[N+]([O-])c1ccco1`, the absorption maximum runs as follows: (in CO) 302 nm; (in O) 313 nm.
In the case of `F[B-]1(F)n2c(-c3ccccc3)cc(-c3ccccc3)c2C(c2ccccc2)=C2C(c3ccccc3)=CC(c3ccccc3)=[N+]21`, the absorption maximum (in C1CCOC1) was determined as 561 nm.
Take `COC(=O)C(C)NC(=O)CCNc1cccc2ccccc12` (stereo not drawn): the absorption maximum (in CCO) stood at 331 nm.
For the compound `COc1ccc(C2=[N+]3C(=Nc4c5c6ccccc6c6ccc(C(C)(C)C)cc6c5c(-c5ccc(OC)cc5)n4[B-]3(F)F)c3c2c2cc(C(C)(C)C)ccc2c2ccccc32)cc1`, under “in Cc1ccccc1”, the absorption maximum was found to be 716 nm.
Turning to `F[B-]1(F)N2C=CN=CC2=[N+]2[N+]1=Cc1c(-c3ccccc3)cc(-c3cccs3)n1[B-]2(F)F`, the absorption maximum (in ClCCl) is on record as 533 nm.
Same read-out and setting: next, `c1ccc2c(c1)OB1Oc3ccccc3-c3c1c-2c1c2c3-c3ccccc3OB2Oc2ccccc2-1`: 405 nm.
Turning to `CC(=O)OC[C@H]1O[C@@H](OCC#Cc2ccc(C3=C4C(C)=CC(/C=C/c5ccc(N(C)C)cc5)=[N+]4[B-](F)(F)n4c(/C=C/c5ccc(N(C)C)cc5)cc(C)c43)cc2)[C@H](OC(C)=O)C(OC(C)=O)[C@@H]1OC(C)=O` (stereo partly drawn), the absorption maximum (in CC#N) was 701 nm.
Turning to `CCCCN(CCCC)c1ccc(/C=C/c2ccc(-c3ccc(/C=C/c4ccc(N(CCCC)CCCC)cc4)cc3)cc2)cc1`, the absorption maximum turned out to be 412.9 nm (in CS(C)=O) and 399.3 nm (in Cc1ccccc1).
For the compound `O=c1ccc2cc3c(cc2o1)OCC3`, the absorption maximum is given as 333 nm (in CC(C)O); 333 nm (in CCO); 330 nm (in CCOCC); 333 nm (in CO); 336 nm (in O).
As to `COc1ccc2c(c1)O[B-]13Oc4cc(OC)ccc4-c4cc(-c5ccccc5)c(n41)N=C1C(c4ccccc4)=CC2=[N+]13` (stereo not drawn), the absorption maximum (in ClC(Cl)Cl) is on record as 765 nm.
`Cc1cc(C)c(B(c2c(C)cc(C)cc2C)c2c(C)cc(N3c4ccccc4Oc4ccccc43)cc2C)c(C)c1`: the absorption maximum (in Cc1ccccc1) is recorded as 399 nm.
For `CCc1ccc(-n2c3ccccc3c3cc4c(cc32)c2ccccc2n4-c2ccc(CC)cc2)cc1`, the absorption maximum (in ClC(Cl)Cl) is recorded as 409 nm.
With `COc1cc2c(cc1-c1ccc(C=O)cc1)Cc1c3c(c4c(c1-2)-c1cc(OC)c(-c2ccc(C=O)cc2)cc1C4)C(=O)N(CCC(C)C)C3=O`, where the note is “in C1CCOC1”, the absorption maximum turned out to be 414 nm.
In turn, `Cc1cc(-c2ccc(-c3nc4ccccc4[nH]3)cc2)c(C)cc1-c1ccc(-c2nc3ccccc3[nH]2)cc1` came in with an absorption maximum (in CN(C)C=O) of 323 nm.
Take `O=c1oc2ccccc2nc1-c1ccccc1`: the absorption maximum (in c1ccccc1) turned out to be 332 nm.
The compound `[O-][n+]1c(/C=C/C=C/c2ccccc2)nc(N2CCOCC2)c2c1CCCC2` yielded an absorption maximum (in ClCCl) of 400 nm.
Consider `F[B-]1(F)n2c(-c3cccs3)cc(-c3ccccc3)c2N=C2C(c3ccccc3)=CC(c3cccs3)=[N+]21`, for which the absorption maximum came out at 710 nm (in CC#N) and 718 nm (in ClCCl).
`COC(=O)C1(C(=O)OC)Cc2c(C#Cc3ccccc3)c(-c3ccccc3)c3c(-c4ccccc4)c(-c4ccccc4)c(-c4ccccc4)c(-c4ccccc4)c3c2C1` gave an absorption maximum (in C1CCOC1) of 339.52 nm.
`Cc1ccc2c(c1)C1(c3ccccc3-c3ccccc31)c1cc(C)ccc1N2c1ccc(-c2ncccn2)cc1` gave an absorption maximum (in Cc1ccccc1) of 380 nm.
In turn, `COc1ccc2c(c1)c1ccc3cccc4c5cccc6oc(=O)c2c(c65)c1c34` came in with an absorption maximum (in C1CCOC1) of 425 nm.
Take `CC1=CC(c2ccc(N(C)C)cc2)=[N+]2C1=Nc1c(C)cc(-c3ccc(N(C)C)cc3)n1[B-]2(F)F`: the absorption maximum is, setting by setting: (in C1CCOC1) 744 nm; (in CS(C)=O) 774 nm; (in Cc1ccccc1) 734 nm.
As to `O=C(O)C1=C/C(=C/C=[NH+]/c2ccc3c(C(F)(F)F)cc(=O)oc3c2)CC(C(=O)O)N1` (stereo not drawn), the absorption maximum (in O) turned out to be 519 nm.
For `c1ccc(-c2ccc(-c3ccc(-c4ccccc4)cc3)cc2)cc1`, the absorption maximum was determined as 299 nm (in C1CCOC1) and 310 nm (in C1COCCO1).
For `c1cc2ccc1CCCc1cc3c(cc1CCCc1ccc(c4nsnc14)CCC3)CCC2`, the absorption maximum reads like this: (in C1CCCCC1) 402 nm; (in CC#N) 403 nm; (in ClC(Cl)Cl) 402 nm.
For the compound `COc1ccc2c3cccc4c(OC)ccc(c5cccc1c52)c43`, the absorption maximum (in C1CCOC1) is recorded as 458 nm; the absorption maximum (in Cc1ccccc1) is reported as 459 nm; the absorption maximum (in ClC(Cl)(Cl)Cl) came to 460 nm; the absorption maximum (in ClC(Cl)Cl) is recorded as 459 nm; the absorption maximum (in ClCCl) is listed as 459 nm; the absorption maximum (in c1ccncc1) is recorded as 463 nm.
In the case of `C[Si]1(C)c2ccc(-c3cccs3)cc2C=Cc2cc(-c3cccs3)ccc21`, the absorption maximum (in ClCCl) is reported as 354 nm.
In the case of `CC(C)(C)c1ccc2c(c1)Sc1cc(C(C)(C)C)ccc1N2c1ccc2c(ccc3nc4ccc5cc(N6c7ccc(C(C)(C)C)cc7Sc7cc(C(C)(C)C)ccc76)ccc5c4nc32)c1`, the absorption maximum is, setting by setting: (in C1CCCCC1) 451 nm; (in C1CCOC1) 452 nm; (in Cc1ccccc1) 451 nm.
In turn, `CCN(CC)c1ccc2c(-c3ccc(S(=O)(=O)O)cc3S(=O)(=O)[O-])c3ccc(=[N+](CC)CC)cc-3oc2c1` had an absorption maximum (in CC#N) of 551 nm, an absorption maximum (in CCO) of 556 nm, an absorption maximum (in CN(C)C=O) of 554 nm and an absorption maximum (in O) of 554 nm.
